Experimental data as given in patent US20240270679A1, “LIPIDS FOR USE IN LIPID NANOPARTICLE FORMULATIONS” (Acuitas Therapeutics, Inc., priority 2022, published 2024).

How the values were obtained:
human IgG in mouse serum = experiment: Immunoglobulin G (IgG) mRNA in vivo evaluation using lipid nanoparticle compositions (human IgG ELISA); set-up: species or system mice; settings: tail vein injection, μg IgG/mL serum 24 hours after administration; for Serum IgG @ 0.3 mg/kg: 0.3 mg mRNA/kg; for Serum IgG @ 1.0 mg/kg: 1.0 mg mRNA/kg
Experimental: A lipid of structure (I), DSPC, cholesterol and PEG-lipid are solubilized in ethanol at a molar ratio of 50:10:38.5:1.5 or 47.5:10:40.7:1.8. Lipid nanoparticles (LNP) are prepared at a total lipid to mRNA weight ratio of approximately 10:1 to 40:1. Briefly, the mRNA is diluted to 0.2 mg/mL in 10 to 50 mM citrate buffer, pH 4 or 10 to 25 mM acetate buffer, pH 4. Syringe pumps are used to mix the ethanolic lipid solution with the mRNA aqueous solution at a ratio of about 1:5 to 1:3 (vol/vol) with total flow rates above 15 mL/min. The ethanol is then removed, and the external buffer replaced with PBS by dialysis. Finally, the lipid nanoparticles are filtered through a 0.2 µm pore sterile filter.
Studies are performed in 6-8-week-old CD-1/ICR mice (Envigo) according to guidelines established by an institutional animal care committee (ACC) and the Canadian Council on Animal Care (CCAC). Varying doses of mRNA-lipid nanoparticle are systemically administered by tail vein injection and animals euthanized at a specific time point (e.g., 24 hours) post-administration. The whole blood is collected, and the serum subsequentially separated by centrifuging the tubes of the whole blood at 2000×g for 10 minutes at 4° C. and stored at −80° C. until use for analysis.
For immunoglobulin G (IgG) ELISA (Life Diagnostics Human IgG ELISA kit), the serum samples are diluted at 100 to 15000 folds with 1× diluent solution. 100 μL of diluted serum is dispensed into anti-human IgG coated 96-well plate in duplicate alongside human IgG standards and incubated in a plate shaker at 150 rpm at 25° C. for 45 minutes. The wells are washed 5 times with 1× wash solution using a plate washer (400 μL/well). 100 μL of HRP conjugate is added into each well and incubated in a plate shaker at the same condition above. The wells are washed 5 times again with 1× wash solution using a plate washer (400 μL/well). 100 μL of TMB reagent is added into each well and incubated in a plate shaker at the same condition above. The reaction is stopped by adding 100 μL of Stop solution to each well. The absorbance is read at 450 nm (A450) with a microplate reader. The amount of human IgG in mouse serum is determined by plotting A450 values for the assay standard against human IgG concentration.
Representative compounds of the disclosure shown in Table 2 were formulated using the following molar ratio: 50% cationic lipid/10% distearoylphosphatidylcholine (DSPC)/38.5% Cholesterol/1.5% PEG lipid 2-[2-(ω-methoxy(polyethyleneglycol2000)ethoxy]-N,N-ditetradecylacetamide) or 47.5% cationic lipid/10% DSPC/40.7% Cholesterol/1.8% PEG lipid. Activity was determined by measuring luciferase expression in the liver 4 hours following administration via tail vein injection as described in Example 1 or by measuring the amount of human IgG in mouse serum as described in Example 2. The activity was compared at a dose of 1.0 or 0.5 or 0.3 mg mRNA/kg and expressed as ng luciferase/g liver measured 4 hours after administration, as described in Example 1 or as μg IgG/mL serum measured 24 hours after administration, as described in Example 2. Compound numbers in Table 2 refer to the compound numbers of Table 1.

[1] = Determination of pKa of formulated lipids (TNS fluorescence assay in lipid nanoparticles); assay type: physicochemical; settings: lipid nanoparticles (compound/DSPC/cholesterol/PEG-lipid), lipid formulated in LNP (cationic lipid/DSPC/cholesterol/PEG-lipid), pH of half-maximal fluorescence
Experimental: As described elsewhere, the pKa of formulated lipids is correlated with the effectiveness of LNPs for delivery of nucleic acids (see Jayaraman et al, Angewandte Chemie, International Edition (2012), 51(34), 8529-8533; Semple et al, Nature Biotechnology 28, 172-176 (2010)). In some embodiments, the preferred range of pKa is ˜5 to ˜7. The pKa of each lipid is determined in lipid nanoparticles using an assay based on fluorescence of 2-(p-toluidino)-6-napthalene sulfonic acid (TNS). Lipid nanoparticles comprising compound of structure (I)/DSPC/cholesterol/PEG-lipid (50/10/38.5/1.5 or 47.5:10:40.7:1.8 mol %) in PBS at a concentration of 0.4 mM total lipid are prepared using the in-line process as described in Example 1. TNS is prepared as a 100 μM stock solution in distilled water. Vesicles are diluted to 24 μM lipid in 2 mL of buffered solutions containing 10 mM HEPES, 10 mM MES, 10 mM ammonium acetate, and 130 mM NaCl, where the pH ranged from 2.5 to 11. An aliquot of the TNS solution is added to give a final concentration of 1 μM and following vortex mixing fluorescence intensity is measured at room temperature in a SLM Aminco Series 2 Luminescence Spectrophotometer using excitation and emission wavelengths of 321 nm and 445 nm. A sigmoidal best fit analysis is applied to the fluorescence data and the pKa is measured as the pH giving rise to half-maximal fluorescence intensity.

| pKa [1] | Structure (SMILES) | Serum IgG @ 0.3 mg/kg (human IgG in mouse serum) | Serum IgG @ 1.0 mg/kg (human IgG in mouse serum) |
| --- | --- | --- | --- |
| 6.4 | CCCCCCCCC(CCCCCC)C(=O)OCCCCCCN(CCCCCCOC(=O)C(CCCCCC)CCCCCCCC)CCCCN(C)CCCCC(=O)N(CCCCCCCC)CCCCCCCC (stereo not drawn) [Compound I-51, ((4-((5-(dioctylamino)-5-oxopentyl)(methyl)amino)butyl)azanediyl)bis(hexane-6,1-diyl)bis(2-hexyldecanoate)] | 31.9 ± 6.5 µg/mL | 131.5 ± 18.1 µg/mL |
| 6.71 | CCCCCCCCC(CCCCCC)C(=O)OCCCCCCN(CCCCCCOC(=O)C(CCCCCC)CCCCCCCC)CCN(C)CCCC(=O)N(CC)CC (stereo not drawn) [Compound I-52, 6-((2-((3-(N,N-diethylcarbamoyl)propyl)-n-methylamino)ethyl)(6-(1-hexylnonylcarbonyloxy)hexyl)amino)hexyl 2-hexyldecanoate] | 6.4 ± 2.6 µg/mL | 35.4 ± 11.1 µg/mL |
| 6.45 | CCCCCCCCC(CCCCCC)C(=O)OCCCCCCN(CCCCCCOC(=O)C(CCCCCC)CCCCCCCC)CCCCN(C)CCCCC(=O)N(CCCCCC)CCCCCC (stereo not drawn) [Compound I-47, ((4-((5-(dihexylamino)-5-oxopentyl)(methyl)amino)butyl)azanediyl)bis(hexane-6,1-diyl)bis(2-hexyldecanoate)] | 15.3 ± 3.7 µg/mL | 61.8 ± 11.5 µg/mL |
